{"source": "patent US20250066286A1", "about": "“COMPOSITIONS OF (Z)-ENDOXIFEN AND METHODS OF ENRICHMENT THEREOF” (Atossa Therapeutics, Inc., priority 2022, published 2025)", "key": {"[1]": {"test": "Precipitation of (Z)-endoxifen by cooling, gradient precipitation (XRPD)", "assay_type": "physicochemical", "conditions": "GRAD", "protocol": "Z)-endoxifen was precipitated by cooling various single and multi- solvent systems. […] The crystallizations utilized cooling rates of 0.5° C./minute or 0.2° C./minute. The samples were then incubated 25° C. with stirring for approximately 15 hours. Some solutions generated precipitate, which was recovered by filtration with a nylon filter (0.22 μm) during centrifugation at 4000 rpm for 3 minutes.\nThe resulting precipitate was recovered by filtration with a nylon filter (0.22 μm) during centrifugation at 4000 rpm for 3 minutes.\nAll precipitates were collected for XRPD analysis."}, "[2]": {"test": "Solvent mixture solubility tests of (Z)-endoxifen", "assay_type": "physicochemical", "conditions": "for solubility / Solubility HT (40 mg/mL): Sol. HT: high temperature", "protocol": "To test the solubility of (Z)-endoxifen in varying conditions, 10 mg of (Z)-endoxifen was added to a stoppered tube, and 0.01 ml of the selected solvent was added (1000 mg/ml solution). The tube was shaken vigorously for 1 minute and then incubated at a constant temperature of 25.0° C. for 15 minutes. If the solid was not completed dissolved, the tube was shaken again and placed at the constant temperature of 25.0° C. for another 15 minutes. If the solid was completely dissolved at this step, it was considered to be very soluble in the selected solvent system. If the solid was not dissolved by this step, another 0.09 ml was added (yielding a 100 mg/ml solution) and an attempt to further dissolve the solid was made by the same steps of shaking and incubating twice over as described previously. If the solid was completely dissolved at this step, it was considered freely soluble. If the solid was not dissolved by this step another 0.2 ml was added (yielding a 33.3 mg/ml solution) and an attempt to further dissolve the solid was made by the same steps of shaking and incubating twice over as described previously. If the solid was completely dissolved at this step, it was considered soluble. If the solid was not dissolved by this step another, 0.7 ml was added (yielding a 10 mg/ml solution) and an attempt to further dissolve the solid was made by the same steps of shaking and incubating twice over as described previously. If the solid was completely dissolved at this step, it was considered sparingly soluble. If the solid was not dissolved by this step the sample was considered to be slightly soluble or very slightly soluble and the solution was heated until the boiling point of the solvent system (max 100° C.) under stirring with a rate of 0.5° C. per minute temperature ramp rate to verify the solubility at high temperatures. The hot solution was after cooled to room temperature with a cooling rate of 0.5° C. per minute to verify if the sample had precipitated after up to 18 hours under magnetic stirring. The same procedure was also used for the solvent mixture solubility tests. The concentrations investigated for the solvent mixture stability were 40 mg/ml and 100 mg/ml. Some solutions in the following example were precipitated by cooling of the solution from a temperature between 50-100° C. to between 10-25° C. at a rate ranging from −0.2 to −0.5° C./minute resulting in a precipitate."}, "[3]": {"conditions": "2-propanol 0.5 mL, 20 mg/mL, 75 to 25 °C, ramp −0.2"}, "[4]": {"conditions": "acetone 0.5 mL, 20 mg/mL, 25 to −20 °C, ramp not controlled, 3 d"}, "[5]": {"conditions": "acetonitrile 0.5 mL, 20 mg/mL, 75 to 25 °C, ramp −0.2"}, "[6]": {"conditions": "butyl acetate 0.5 mL, 100 mg/mL, 100 to 25 °C, ramp −0.2"}, "[7]": {"conditions": "ethanol 0.5 mL, 20 mg/mL, 75 to 25 °C, ramp −0.2"}, "[8]": {"conditions": "2-propanol/tetrahydrofuran 95/5 v/v, 40 mg/mL"}, "[9]": {"conditions": "acetone/2-propanol 67/33 v/v, 40 mg/mL"}, "[10]": {"conditions": "acetone/tetrahydrofuran 95/5 v/v, 40 mg/mL"}}, "note": "Like-named read-outs stand apart in the source and are kept apart here.", "data": [{"smiles": "CC/C(=C(\\c1ccc(O)cc1)c1ccc(OCCNC)cc1)c1ccccc1", "note": "[(Z)-endoxifen, (Z)-4-(1-(4-(2-(methylamino)ethoxy)phenyl)-2-phenylbut-1-enyl)phenol]", "values": [{"measurement": "Output Crystallinity [high/low/SC/oriented]", "setting": "[1]; [3]", "value": "low"}, {"measurement": "Output Main phase [phase]", "setting": "[1]; [3]", "value": "Form I"}, {"measurement": "Output Main phase [phase]", "setting": "[1]; 2-propanol 0.5 mL, 100 mg/mL, 75 to 25 °C, ramp −0.2", "value": "Form I"}, {"measurement": "Output Crystallinity [high/low/SC/oriented]", "setting": "[1]; [4]", "value": "low"}, {"measurement": "Output Main phase [phase]", "setting": "[1]; [4]", "value": "Form I"}, {"measurement": "Output Crystallinity [high/low/SC/oriented]", "setting": "[1]; [5]", "value": "low"}, {"measurement": "Output Main phase [phase]", "setting": "[1]; [5]", "value": "Form V"}, {"measurement": "Output Crystallinity [high/low/SC/oriented]", "setting": "[1]; [6]", "value": "low"}, {"measurement": "Output Main phase [phase]", "setting": "[1]; [6]", "value": "Form I"}, {"measurement": "Output Crystallinity [high/low/SC/oriented]", "setting": "[1]; [7]", "value": "low"}, {"measurement": "Output Main phase [phase]", "setting": "[1]; [7]", "value": "Form I"}, {"measurement": "Output Main phase [phase]", "setting": "[1]; ethanol 0.5 mL, 100 mg/mL, 75 to 25 °C, ramp −0.2", "value": "Form I"}, {"measurement": "Output Main phase [phase]", "setting": "[1]; ethyl acetate 0.5 mL, 100 mg/mL, 75 to 25 °C, ramp −0.2", "value": "Form I"}, {"measurement": "Output Main phase [phase]", "setting": "[1]; methyl isobutyl ketone 0.5 mL, 100 mg/mL, 25 to −20 °C, ramp not controlled, 1 d", "value": "Form X"}, {"measurement": "solubility", "setting": "[2]; 2-propanol/THF (95/5 v/v), organic solvent or mixture, thermodynamic from solid, 2-propanol/THF (95/5 v/v), precipitated during cooling, read-out: Solubility", "value": 40, "unit": "mg/mL"}, {"measurement": "solubility", "setting": "[2]; 2-propanol/tetrahydrofuran 95/5 v/v, organic solvent or mixture, thermodynamic from solid, 2-propanol/tetrahydrofuran 95/5 v/v, 100 mg/mL, read-out: Solubility HT (100 mg/mL): Sol. HT", "value": "< 100", "unit": "mg/mL"}, {"measurement": "Solubility HT (40 mg/mL): Clear point", "setting": "[2]; [8]", "value": 52.8, "unit": "°C"}, {"measurement": "Solubility HT (40 mg/mL): Cloudy point", "setting": "[2]; [8]", "value": 28.6, "unit": "°C"}, {"measurement": "Solubility HT (40 mg/mL): Sol. HT", "setting": "[2]; [8]", "value": "YES"}, {"measurement": "Solubility HT (40 mg/mL): Re-PPT", "setting": "[2]; 2-propanol/tetrahydrofuran 95/5 v/v, 40 mg/mL, on cooling", "value": "YES"}, {"measurement": "solubility", "setting": "[2]; acetone/2-propanol 67/33 v/v, organic solvent or mixture, thermodynamic from solid, acetone/2-propanol 67/33 v/v, 100 mg/mL, read-out: Solubility HT (100 mg/mL): Sol. HT", "value": "< 100", "unit": "mg/mL"}, {"measurement": "Solubility HT (40 mg/mL): Clear point", "setting": "[2]; [9]", "value": 36.8, "unit": "°C"}, {"measurement": "Solubility HT (40 mg/mL): Re-PPT after 18 hours at −20° C.", "setting": "[2]; [9]", "value": "YES"}, {"measurement": "Solubility HT (40 mg/mL): Sol. HT", "setting": "[2]; [9]", "value": "YES"}, {"measurement": "solubility", "setting": "[2]; acetone/2-propanol (63/37 v/v), precipitated after 18 hours at −20° C.", "value": "soluble"}, {"measurement": "solubility", "setting": "[2]; acetone/THF (95/5 v/v), precipitated after 18 hours at −20° C.", "value": "soluble"}, {"measurement": "solubility", "setting": "[2]; acetone/acetonitrile 50/50 v/v, organic solvent or mixture, thermodynamic from solid, acetone/acetonitrile 50/50 v/v, 40 mg/mL, read-out: Solubility HT (40 mg/mL): Sol. HT", "value": "< 40", "unit": "mg/mL"}, {"measurement": "solubility", "setting": "[2]; acetone/acetonitrile 50/50 v/v, organic solvent or mixture, thermodynamic from solid, acetone/acetonitrile 50/50 v/v, 100 mg/mL, read-out: Solubility HT (100 mg/mL): Sol. HT", "value": "< 100", "unit": "mg/mL"}, {"measurement": "solubility", "setting": "[2]; acetone/acetonitrile (50/50 v/v), organic solvent or mixture, thermodynamic from solid, acetone/acetonitrile (50/50 v/v), read-out: Solubility", "value": "< 40", "unit": "mg/mL"}, {"measurement": "solubility", "setting": "[2]; acetone/ethyl acetate 50/50 v/v, organic solvent or mixture, thermodynamic from solid, acetone/ethyl acetate 50/50 v/v, 40 mg/mL, read-out: Solubility HT (40 mg/mL): Sol. HT", "value": "< 40", "unit": "mg/mL"}, {"measurement": "solubility", "setting": "[2]; acetone/ethyl acetate 50/50 v/v, organic solvent or mixture, thermodynamic from solid, acetone/ethyl acetate 50/50 v/v, 100 mg/mL, read-out: Solubility HT (100 mg/mL): Sol. HT", "value": "< 100", "unit": "mg/mL"}, {"measurement": "solubility", "setting": "[2]; acetone/ethyl acetate (50/50 v/v), organic solvent or mixture, thermodynamic from solid, acetone/ethyl acetate (50/50 v/v), read-out: Solubility", "value": "< 40", "unit": "mg/mL"}, {"measurement": "solubility", "setting": "[2]; acetone/tetrahydrofuran 95/5 v/v, organic solvent or mixture, thermodynamic from solid, acetone/tetrahydrofuran 95/5 v/v, 100 mg/mL, read-out: Solubility HT (100 mg/mL): Sol. HT", "value": "< 100", "unit": "mg/mL"}, {"measurement": "Solubility HT (40 mg/mL): Clear point", "setting": "[2]; [10]", "value": 47.5, "unit": "°C"}, {"measurement": "Solubility HT (40 mg/mL): Re-PPT after 18 hours at −20° C.", "setting": "[2]; [10]", "value": "YES"}, {"measurement": "Solubility HT (40 mg/mL): Sol. HT", "setting": "[2]; [10]", "value": "YES"}]}]}
